The source of these data is patent US20230321126A1 (priority 2020, published 2023).

Assay [1] has as its system SARS-CoV-2 spike protein pseudo-typed virions. It counts as cell-based.
The target in assay [2] is T1, hACE2 (Homo sapiens, UniProt Q9BYF1). As to the kind of experiment: ACE2 binding assay (ACE2 Inhibitor Screening Assay Kit). On the set-up: purchased BPS Bioscience.
For assay [3], the target named is RBD of SARS-CoV-2 spike protein / hACE2 receptor (Severe acute respiratory syndrome coronavirus 2, UniProt P0DTC2). It counts as binding. Conditions: 100 μg/ml.
Assay [4] has as its system cathepsin L. As to the kind of experiment: Cathepsin L expression in A549 cells (Western blot). The note with it: 24 h. It counts as cell-based, human.
Description: Western blot analysis: A549 cells were treated with indicated concentrations of selected polyphenols and lysed using RIPA lysis buffer (Sigma, St. Louis, MO) supplemented with 1× Complete protease inhibitors (Roche Applied Science, Indianapolis, IN). The protein concentration was measured by the Dc protein assay (Bio-Rad, Hercules, CA). Proteins (50 μg/well) were separated on 8-16% gradient SDS-PAGE gels and transferred to a PVDF membrane. Specific proteins were detected with commercially available human anti-cathepsin L, anti-TMPRSS2, and anti-ACE2 monoclonal antibodies, all at 1:200 dilution, and anti-β-actin antibody as a loading control at 1:1000 dilution. Images were captured with Azure™ cSeries digital imaging system (Azure Biosystems, Dublin, CA) with auto-exposure settings. Densitometry was performed with NIH ImageJ software.
Cathepsin L expression: Expression of cathepsin L in cells was performed using Western blot. […] Next, cells were washed with 1×PBS, lysed, and processed according to procedure described below.
Western blot: A495 cells were lysed with lysis buffer [R IPA buffer plus 1× Protease Inhibitor (ThermoFisher Scientific, Waltham, MA)]. The protein estimation was performed with Dc Protein Assay (Bio-Rad, Hercules, CA). A 45 μg/well of protein was separated on 8-16% gradient SDS-PAGE gels and transferred to a PVDF membrane. […]
Assay [5] deals with A549 cells expressing SARS-CoV-2 spike protein / hACE2/A549 cells. It counts as cell-based, human. The note with it: 25 μg/ml, 4 h.
For assay [6], the system named is lysosomal/endosomal pH of A549 cells. As to the kind of experiment: Endosomal/lysosomal pH assay in A549 cells. It counts as cell-based, human. The note with it: 5.0-25 μg/ml; control approximately pH=5.0.
Description: Acridine orange (Thermo Fisher Scientific, Waltham, MA) was added directly to each dish to reach a final concentration of 6.6 μg/ml. The cells were additionally incubated at 37° C. with 5% CO2 for 20 min. and washed three times with 1×PBS. Live Cell Imaging Solution (LCIS) (Thermo Fisher Scientific, Waltham, MA) was added to the wells, and images were taken using a Zeiss Axio Observer A1 fluorescence microscope with a 40× magnification. […] Results are expressed as a percentage of polyphenol-free control (mean+/−SD, n=3).
A concurrent experiment was performed using pHrodo™ Green AM Intracellular pH Indicator (Thermo Fisher Scientific, Waltham, MA) according to the manufacturer's protocol. […] Next, 10 μl of the pHrodo™ Green AM dye was added to 100 μl of PowerLoad™ to facilitates uniform cellular loading of AM esters, and the whole dye solution was transferred into 10 ml of LCIS. […] The plate was incubated for 30 min. at 37° C., washed again with LCIS, and fluorescence was measured at Ex/Em=509/533 nm wavelength using a spectrofluorometer (Tecan Group Ltd, Switzerland). pH identification was performed based on standard curve, using an Intracellular pH Calibration Buffer Kit according to the manufacturer's protocol (Thermo Fisher Scientific, Waltham, MA). […] Next, the fluorescence was measured Ex/Em=509/533 nm wavelength. […]
For assay [7], the target named is T1, hACE2. The note with it: Jena et al.; cited from earlier work.
In assay [8] the target is RBD of SARS-CoV-2 spike protein (Severe acute respiratory syndrome coronavirus 2, UniProt P0DTC2). The note with it: Jena et al.; cited from earlier work.
Assay [9] concerns SARS-CoV-2 spike protein pseudo-typed virions. It counts as cell-based. This is another data set of the same source.

Bounds are passed on as bounds.

T1 sequence (Q9BYF1 18-805): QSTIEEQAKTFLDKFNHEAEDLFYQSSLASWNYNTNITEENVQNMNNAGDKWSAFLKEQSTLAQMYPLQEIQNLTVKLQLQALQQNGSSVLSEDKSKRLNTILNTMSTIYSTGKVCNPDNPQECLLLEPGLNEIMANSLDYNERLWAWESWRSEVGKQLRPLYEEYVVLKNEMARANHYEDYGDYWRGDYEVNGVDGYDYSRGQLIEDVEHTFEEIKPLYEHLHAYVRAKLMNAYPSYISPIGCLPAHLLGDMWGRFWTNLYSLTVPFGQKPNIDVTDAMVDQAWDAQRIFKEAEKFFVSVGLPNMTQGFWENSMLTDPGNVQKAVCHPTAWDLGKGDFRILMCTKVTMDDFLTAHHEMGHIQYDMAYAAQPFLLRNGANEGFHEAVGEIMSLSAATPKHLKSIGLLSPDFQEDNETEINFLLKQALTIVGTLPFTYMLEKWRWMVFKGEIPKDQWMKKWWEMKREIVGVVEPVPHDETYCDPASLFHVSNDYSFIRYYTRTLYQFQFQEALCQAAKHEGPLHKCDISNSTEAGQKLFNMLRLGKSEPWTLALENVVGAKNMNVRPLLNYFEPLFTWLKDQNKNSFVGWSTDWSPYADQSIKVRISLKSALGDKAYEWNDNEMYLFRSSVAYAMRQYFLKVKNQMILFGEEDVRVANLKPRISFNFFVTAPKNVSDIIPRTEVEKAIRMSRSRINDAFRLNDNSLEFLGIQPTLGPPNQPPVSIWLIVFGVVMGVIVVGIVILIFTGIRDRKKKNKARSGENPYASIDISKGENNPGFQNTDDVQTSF

In the case of `Oc1ccc2c(c1)OC[C@]1(O)Cc3cc(O)c(O)cc3[C@H]21` [Brazilin], the “binding of pseudo-typed virions to hACE2/A549” value (“binding of pseudo-typed virions” for short) in [1] is listed as “inhibit, in dose-dependent fashion”. Further, in assay [2], the “direct binding to ACE2” value is listed as “does not bind to ACE2 directly”. In addition, the “rank of inhibitory effect among 56 polyphenols and plant extracts” value in assay [3] is listed as “highest inhibitory effect”. Besides, the “cathepsin L expression at protein level” value in assay [4] is “neither brazilin nor curcumin downregulated cathepsin L expression”. In addition, in assay [5], the decrease of fusion turned out to be 40%.

For the compound theaflavin-3,3′-digallate [TF-3], the “lysosomal/endosomal pH” value in assay [6] is given as 5.5-6.0 pH. Besides, in assay [1], the “binding of pseudo-typed virions” value is on record as “inhibit, in dose-dependent fashion”.

catechin: in assay [7], the “binding affinity to hACE2” value is -7.8 kcal/mol. Besides, the “binding affinity to viral spike protein” value in assay [8] was -7.9 kcal/mol.

With `COc1cc(/C=C/C(=O)CC(=O)/C=C/c2ccc(O)c(OC)c2)ccc1O` [Curcumin], the “binding affinity to hACE2” value in assay [7] is -8.9 kcal/mol. Further, in assay [9], the “concentration from which significant inhibition was seen” value is at least 5.0 µg/mL. Also, in [8], the “binding affinity to viral spike protein” value is -10.5 kcal/mol. In addition, the “binding of pseudo-typed virions” value in [1] was “inhibit, in dose-dependent fashion”. Also, the “concentration showing binding efficacy to ACE2” value in [2] fell in the range of 10 to 25 µg/mL. In [3], the “rank of inhibitory effect among 56 polyphenols and plant extracts” value is recorded as “highest inhibitory effect”. Further, the “cathepsin L expression at protein level” value in [4] is “neither brazilin nor curcumin downregulated cathepsin L expression”.
